Measured values: patent US20220306695A1, “COMPSTATIN ANALOGUES AND THEIR MEDICAL USES” (priority 2019, published 2022)
Starred links: 1 amine or outer side, 2 acyl side, 3 side chain; linkers in the order of their positions; H or OH if unused. Positions of bridges follow the written chain, without caps; N, C: chain ends. Non-standard residues stand in square brackets, D forms with d. Residues, ends and D or L forms follow the SMILES beside them. Groups on a side chain read outwards from the residue. *: point of attachment. Trp(1-Me) = Cn1cc(C[C@H](N)C(=O)O)c2ccccc21; Abu(4-yl) = O=C([C@H](CC[*:3])N[*:1])[*:2]; C18 diacid = O=C(O)CCCCCCCCCCCCCCCCC(=O)*; γGlu = O=C(O)[C@H](CCC(=O)[*:2])N[*:1]; AEEA = NCCOCCOCC(=O)O; Sar = CNCC(=O)O

Assays:
[1] = tested on: classical complement pathway; assay: In vitro haemolysis assay (inhibition of classical complement pathway); type: cell-based, human; conditions: Table 3; human serum, sensitized sheep red blood cells; read-out: IC50[nM], in vitro analysis of inhibition of hemolysis
Protocol: Method The in vitro effect of test compounds was assessed by measuring their inhibitory effect of the classical complement pathway in a haemolysis assay. Briefly, test compounds and reference compounds were dissolved in DMSO and diluted in Tris/Casein Assay Buffer (10 mM Tris, 145 mM NaCl, 0.5 mM MgCl2, 0.15 mM CaCl2, and 0.1% W/V Casein, adjusted to pH 7.4) as 9-point serial dilutions in a 96 well plate. Sensitized sheep red blood cells (RBC) coated with rabbit anti-sheep erythrocyte antiserum (Complement Technology, Inc., TX, USA) were washed in Tris/Casein Assay Buffer. 50 μL from each well of diluted compound was added to a 96-well plate containing 50 μL diluted human serum (Complement Technology, Inc., TX, USA) and incubated for 15 minutes at room temperature. The serum dilution factor was optimized for every serum batch to obtain 70-90% of maximal haemolysis using the protocol. Then 50 μL sensitized sheep red blood cells were added to all wells ([…] per well). After 30 minutes of incubation at 37° C. with gentle agitation, the reaction was stopped by addition of 50 μL Tris STOP Buffer per well (10 mM EDTA, 10 mM Tris, 145 mM NaCl adjusted to pH 7.4). The RBCs were then removed by centrifugation and the resulting supernatant measured for hemolysis by absorbance at 405 nm. The response was normalized relative to a positive and negative control (vehicle) to calculate the IC50 from the concentration response curve using the 4-parameter logistic (4PL) nonlinear model for curve fitting.

[2] = Solubility test at 10 mg/mL (visual inspection and light scattering); type: physicochemical; conditions: for Solubility, Condition 1 Acetate pH 4: 10 mg/mL compound in 100 mM acetate pH 4; for Solubility, Condition 2 Acetate pH 5: 10 mg/mL compound in 100 mM acetate pH 5; for Solubility, Condition 3 Phosphate pH 6: 10 mg/mL compound in 100 mM phosphate pH 6; for Solubility, Condition 4 Phosphate pH 7: 10 mg/mL compound in 100 mM phosphate pH 7; for Solubility, Condition 5 Phosphate pH 7.5: 10 mg/mL compound in 100 mM phosphate pH 7.5
Protocol: The solubility of compounds was assessed by measuring light scattering over a pH interval from pH 4 to pH 7.5.
Compounds were dissolved in a stock solution of 20 mg/mL in H2O at pH 2.5 or pH 10.
These stock solutions were diluted 1:1 with 200 mM buffered solution to reach a final solution of 10 mg/mL compound in 100 mM buffer. The 5 investigated conditions were (1) acetate pH 4.0, (2) acetate pH 5.0, (3) phosphate pH 6.0, (4) phosphate pH 7 and (5) phosphate pH 7.5.
Visual inspection included manually checking the 96 well plate for wells that are clear or non-clear. In addition to this a picture of the 96 well plate is taken.
Absorbance was measured at four wavelengths: 280 nm, 325 nm, 340 nm and 360 nm in an UV transparent 96 well microplate in a SpectraMax 190 microplate reader (Molecular Devices).
The criteria for this was a combination of visual inspection and light scattering not exceeding 0.1 AU, where values below 0.1 AU are good in visually clear samples. […]

SMILES: CC[C@H](C)[C@@H]1NC(=O)[C@@H](NC(=O)[C@H](Cc2ccccc2)NC(=O)[C@H](CCC(=O)O)NC(=O)[C@H](CO)NC(C)=O)CCSC[C@@H](C(=O)N(C)CC(=O)N[C@@H](CCC(=O)O)C(=O)NCCOCCOCC(=O)NCCOCCOCC(=O)N[C@@H](CCCCNC(=O)CC[C@H](NC(=O)CNC(=O)CC[C@H](NC(=O)CCCCCCCCCCCCCCCCC(=O)O)C(=O)O)C(=O)O)C(N)=O)NC(=O)[C@H](CCCNC(=N)N)NC(=O)[C@H](Cc2c[nH]cn2)NC(=O)[C@H](CCC(=O)O)NC(=O)CN(C)C(=O)[C@H](Cc2c[nH]c3ccccc23)NC(=O)[C@H](CC(=O)O)NC(=O)[C@H](CCC(N)=O)NC(=O)[C@H](Cc2cn(C)c3ccccc23)NC1=O [Compound 164, Ac-SEFhC(1)I[1-Me-Trpp]QDW[Sar]EHRA(1)[Sar]E[Peg3][Peg3]-K([17-carboxy-heptadecanoyl][γGlu]G[γGlu])-NH2] (Ac-SEF[Abu(4-yl)]I[Trp(1-Me)]QDW[Sar]EHRC[Sar]E[AEEA][AEEA]K([γGlu-Gly-γGlu-C18 diacid])-NH2; thioether 4-14)
- IC50 [1]: < 100 nM

SMILES: CC[C@H](C)[C@H](NC(C)=O)C(=O)N[C@H]1CSSC[C@@H](C(=O)N[C@H](C(N)=O)[C@@H](C)O)NC(=O)[C@H](CCCNC(=N)N)NC(=O)[C@H](Cc2c[nH]cn2)NC(=O)[C@H](CCCNC(=N)N)NC(=O)CNC(=O)[C@H](Cc2c[nH]c3ccccc23)NC(=O)[C@H](CC(=O)O)NC(=O)[C@H](CCC(N)=O)NC(=O)[C@H](Cc2c[nH]c3ccccc23)NC(=O)[C@H]([C@@H](C)CC)NC1=O [Compound 18] (Ac-ICIWQDWGRHRCT-NH2; disulfide 2-12)
- IC50 [1]: < 100 nM

SMILES: CC[C@H](C)[C@@H]1NC(=O)[C@@H](NC(=O)[C@H](Cc2ccc(O)cc2)NC(=O)[C@H](CCC(=O)O)NC(=O)[C@H](CO)NC(C)=O)CSSC[C@@H](C(=O)N(C)CC(=O)N[C@@H](CCC(=O)O)C(=O)NCC(=O)N[C@@H](CCC(=O)O)C(=O)N[C@@H](CCCCNC(=O)CC[C@H](NC(=O)[C@H](CCCCN)NC(=O)CC[C@H](NC(=O)CCCCCCCCCCCCCCCCC(=O)O)C(=O)O)C(=O)O)C(N)=O)NC(=O)[C@H](CCCNC(=N)N)NC(=O)[C@H](Cc2c[nH]cn2)NC(=O)[C@H](CCC(=O)O)NC(=O)CNC(=O)[C@H](Cc2c[nH]c3ccccc23)NC(=O)[C@H](CC(=O)O)NC(=O)[C@H](CCC(N)=O)NC(=O)[C@H](Cc2cn(C)c3ccccc23)NC1=O [Compound 116] (Ac-SEYCI[Trp(1-Me)]QDWGEHRC[Sar]EGEK([γGlu-Lys-γGlu-C18 diacid])-NH2; disulfide 4-14)
- Solubility, Condition 1 Acetate pH 4 [2]: − (denotes lack of solubility at the given condition, as UV absorbance at 340 nm exceeds 0.1 AU and/or it is visibly turbid or contains particles.)
- Solubility, Condition 2 Acetate pH 5 [2]: − (denotes lack of solubility at the given condition, as UV absorbance at 340 nm exceeds 0.1 AU and/or it is visibly turbid or contains particles.)
- Solubility, Condition 3 Phosphate pH 6 [2]: + (denotes solubility at the given condition, as determined by UV absorbance being less than 0.1 AU at 340 nm and the sample being clear when manually inspected.)
- Solubility, Condition 4 Phosphate pH 7 [2]: + (denotes solubility at the given condition, as determined by UV absorbance being less than 0.1 AU at 340 nm and the sample being clear when manually inspected.)
- Solubility, Condition 5 Phosphate pH 7.5 [2]: + (denotes solubility at the given condition, as determined by UV absorbance being less than 0.1 AU at 340 nm and the sample being clear when manually inspected.)

SMILES: CC[C@H](C)[C@@H]1NC(=O)[C@@H](NC(=O)CN(C)C(=O)[C@H](CCC(=O)O)NC(=O)[C@H](CO)NC(C)=O)CSSC[C@@H](C(=O)N(C)CC(=O)N[C@@H](CCC(=O)O)C(=O)N[C@@H](C)C(N)=O)NC(=O)[C@H](CCCNC(=N)N)NC(=O)[C@H](Cc2c[nH]cn2)NC(=O)[C@H](CCC(=O)O)NC(=O)CNC(=O)[C@H](Cc2c[nH]c3ccccc23)NC(=O)[C@H](CCC(=O)O)NC(=O)[C@H](CCC(N)=O)NC(=O)[C@H](Cc2cn(C)c3ccccc23)NC1=O [Compound 90] (Ac-SE[Sar]CI[Trp(1-Me)]QEWGEHRC[Sar]EA-NH2; disulfide 4-14)
- IC50 [1]: < 250 nM

SMILES: CC[C@H](C)[C@@H]1NC(=O)[C@@H](NC(=O)[C@H](Cc2ccccc2)NC(=O)[C@H](CCC(=O)O)NC(=O)CNC(C)=O)CSSC[C@@H](C(=O)N(C)CC(=O)N[C@@H](CCC(=O)O)C(=O)N[C@@H](C)C(N)=O)NC(=O)[C@H](CCCNC(=N)N)NC(=O)[C@H](Cc2c[nH]cn2)NC(=O)[C@H](CCC(=O)O)NC(=O)CNC(=O)[C@H](Cc2c[nH]c3ccccc23)NC(=O)[C@H](CC(=O)O)NC(=O)[C@H](CCC(N)=O)NC(=O)[C@H](Cc2cn(C)c3ccccc23)NC1=O [Compound 87] (Ac-GEFCI[Trp(1-Me)]QDWGEHRC[Sar]EA-NH2; disulfide 4-14)
- IC50 [1]: < 100 nM

SMILES: CC[C@H](C)[C@@H]1NC(=O)[C@@H](NC(=O)[C@H](Cc2ccccc2)NC(=O)[C@H](CCC(=O)O)NC(=O)[C@H](CO)NC(C)=O)CSSC[C@@H](C(=O)N(C)CC(=O)N[C@@H](CCC(=O)O)C(=O)N[C@@H](C)C(N)=O)NC(=O)[C@H](CCCCN)NC(=O)[C@H](Cc2c[nH]cn2)NC(=O)[C@H](CCC(=O)O)NC(=O)CNC(=O)[C@H](Cc2c[nH]c3ccccc23)NC(=O)[C@H](CC(=O)O)NC(=O)[C@H](CCC(N)=O)NC(=O)[C@H](Cc2cn(C)c3ccccc23)NC1=O [Compound 86] (Ac-SEFCI[Trp(1-Me)]QDWGEHKC[Sar]EA-NH2; disulfide 4-14)
- IC50 [1]: < 100 nM

SMILES: CC[C@H](C)[C@H](NC(C)=O)C(=O)N[C@H]1CSSC[C@@H](C(=O)N[C@H](C(N)=O)[C@@H](C)O)NC(=O)[C@H](CCCNC(=N)N)NC(=O)[C@H](Cc2c[nH]cn2)NC(=O)[C@H](CC(=O)O)NC(=O)CNC(=O)[C@H](Cc2c[nH]c3ccccc23)NC(=O)[C@H](CC(=O)O)NC(=O)[C@H](CCC(N)=O)NC(=O)[C@H](Cc2c[nH]c3ccccc23)NC(=O)[C@H]([C@@H](C)CC)NC1=O [Compound 17] (Ac-ICIWQDWGDHRCT-NH2; disulfide 2-12)
- IC50 [1]: < 100 nM

SMILES: CC[C@H](C)[C@@H]1NC(=O)[C@@H](NC(=O)[C@H](Cc2ccccc2)NC(=O)[C@H](CCC(=O)O)NC(=O)[C@H](CO)NC(C)=O)CSSC[C@@H](C(=O)N(C)CC(=O)N[C@@H](CCC(=O)O)C(=O)N[C@@H](CCCCN)C(=O)N[C@@H](CCC(=O)NCC(=O)NCC(=O)NCC(=O)N[C@@H](CCCCNC(=O)CC[C@H](NC(=O)CNC(=O)CC[C@H](NC(=O)CCCCCCCCCCCCCCCCC(=O)O)C(=O)O)C(=O)O)C(N)=O)C(=O)O)NC(=O)[C@H](CCCNC(=N)N)NC(=O)[C@H](Cc2c[nH]cn2)NC(=O)[C@H](CCC(=O)O)NC(=O)CNC(=O)[C@H](Cc2c[nH]c3ccccc23)NC(=O)[C@H](CC(=O)O)NC(=O)[C@H](CCC(N)=O)NC(=O)[C@H](Cc2cn(C)c3ccccc23)NC1=O [Compound 132] (Ac-SEFCI[Trp(1-Me)]QDWGEHRC[Sar]EK[γGlu]GGGK([γGlu-Gly-γGlu-C18 diacid])-NH2; disulfide 4-14)
- IC50 [1]: < 100 nM

SMILES: CC[C@H](C)[C@@H]1NC(=O)[C@@H](NC(=O)[C@H](Cc2ccc(O)cc2)NC(=O)[C@H](C)NC(=O)[C@H](CO)NC(C)=O)CSSC[C@@H](C(=O)N(C)CC(=O)N[C@@H](CCC(=O)O)C(=O)N[C@@H](CCCCNC(=O)CC[C@H](NC(=O)CNC(=O)[C@H](CCCCN)NC(=O)CC[C@H](NC(=O)CCCCCCCCCCCCCCCCC(=O)O)C(=O)O)C(=O)O)C(N)=O)NC(=O)[C@H](CCCNC(=N)N)NC(=O)[C@H](Cc2c[nH]cn2)NC(=O)[C@H](CCC(=O)O)NC(=O)CNC(=O)[C@H](Cc2c[nH]c3ccccc23)NC(=O)[C@H](CC(=O)O)NC(=O)[C@H](CCC(N)=O)NC(=O)[C@H](Cc2cn(C)c3ccccc23)NC1=O [Compound 105] (Ac-SAYCI[Trp(1-Me)]QDWGEHRC[Sar]EK([γGlu-Gly-Lys-γGlu-C18 diacid])-NH2; disulfide 4-14)
- Solubility, Condition 1 Acetate pH 4 [2]: − (denotes lack of solubility at the given condition, as UV absorbance at 340 nm exceeds 0.1 AU and/or it is visibly turbid or contains particles.)
- Solubility, Condition 2 Acetate pH 5 [2]: − (denotes lack of solubility at the given condition, as UV absorbance at 340 nm exceeds 0.1 AU and/or it is visibly turbid or contains particles.)
- Solubility, Condition 3 Phosphate pH 6 [2]: + (denotes solubility at the given condition, as determined by UV absorbance being less than 0.1 AU at 340 nm and the sample being clear when manually inspected.)
- Solubility, Condition 4 Phosphate pH 7 [2]: + (denotes solubility at the given condition, as determined by UV absorbance being less than 0.1 AU at 340 nm and the sample being clear when manually inspected.)
- Solubility, Condition 5 Phosphate pH 7.5 [2]: + (denotes solubility at the given condition, as determined by UV absorbance being less than 0.1 AU at 340 nm and the sample being clear when manually inspected.)
